Measurements: PubChem BioAssay AID449764 (Southern Research Specialized Biocontainment Screening …, 2010)

Each molecule was assayed on Mycobacterium tuberculosis H37Rv growth inhibition, no glycerol (assay: Mycobacterium tuberculosis H37Rv growth inhibition, no glycerol, confirmatory dose response (AID 449764);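 further: growth read after 7 days of incubation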).
Cc1cccc(C2=N/C(=C\c3cccs3)C(=O)O2)c1 was tested, and the IC50 was 7.65 µM.
Work on Cc1ccc(-n2nc3c(N4CCC(C(=O)NCc5ccccc5C)CC4)nnc(C)c3c2C)cc1 yielded an IC50 of 71.8 µM.
CCN(CC)S(=O)(=O)c1ccc(/C=C/C(=O)OCC#N)cc1 showed an IC50 of 23.3 µM.
O=c1[nH]c(=O)n(C2CCCO2)cc1F (stereo unspecified) gave an IC50 of 57.1 µM.
In the case of Clc1ccc(-c2cc3ccccc3nc2N2CCCC2)cc1, the IC50 is reported as 71.6 µM.
For O=C1c2ccccc2S(=O)(=O)c2cc(C(=O)N3CCN(c4c(Cl)cncc4Cl)CC3)ccc21, the IC50 was 34.8 µM.
CCOC(=O)N1CCc2c(sc(NC(=O)c3ccc(Cl)s3)c2C(N)=O)C1 showed an IC50 of 6.96 µM.
With CCOC(=O)N1CCC(N2Cc3cccc(C(=O)Nc4ccc(N(CC)CC)cc4C)c3C2=O)CC1 the IC50 was 35.3 µM.
In the case of C/C(=C1/C(=O)N(c2ccc([N+](=O)[O-])cc2)N=C1c1ccccc1)N(C)C, the IC50 is reported as 28.2 µM.
For C(=N\Nc1nc(-c2ccccc2)cs1)/c1ccncc1, the IC50 was 62.7 µM.
O=C1CC(/C=C/c2ccc(Cl)cc2)=Nc2ccccc2N1 showed an IC50 of 12.2 µM.
In the case of CSc1nc2nc3c(c(=O)n2[nH]1)CCCC3, the IC50 is reported as 23.8 µM.
With Cc1ccc(C(=O)n2c(N)nc3ccccc32)cc1 the IC50 was 89.9 µM.
For O=C(c1ccc([N+](=O)[O-])s1)N1CCN(c2ccc(C(F)(F)F)cn2)CC1, the IC50 was 13.7 µM.
CCOc1ccc(Nc2cc(C)nc(-n3nc(C)cc3C)n2)cc1 was tested, and the IC50 was 2.27 µM.
CCOC(=O)CSc1nn(-c2ccccc2)c(=S)s1 showed an IC50 of 6.12 µM.
In the case of CCOC(=O)c1[nH]c(CN2CCN(c3ccc(OC)cc3)CC2)c(C(=O)OCC)c1C, the IC50 is reported as 34.1 µM.
In the case of CCCCCCOC(=O)C(C#N)c1nc2ccccc2nc1N1CCN(CC)CC1 (stereo unspecified), the IC50 is reported as 21.3 µM.
Molecule CSC(=S)NCc1cccnc1 has an IC50 of 29.1 µM.
c1cc2c3c(cccc3c1)NC1(CCC3(CC1)Nc1cccc4cccc(c14)N3)N2 showed an IC50 of 78.1 µM.
Brc1ccc2c(c1)C(OC1CN3CCC1CC3)c1ccccc1CS2 (stereo unspecified) showed an IC50 of 26.3 µM.
With COc1cc(NC(C)CCCN)c2ncccc2c1 (stereo unspecified) the IC50 was 9.02 µM.
Work on Cc1cc(C(=O)CCl)c(C)n1-c1cccc([N+](=O)[O-])c1 yielded an IC50 of 2.42 µM.
In the case of CC1CCc2c(sc3ncnc(NCCCOC(C)C)c23)C1 (stereo unspecified), the IC50 is reported as 59.3 µM.
For CC1CCc2c(C(=O)Nc3nccs3)csc2C1 (stereo unspecified), the IC50 was 41.9 µM.
CCCCOc1ccc(C(=O)N/N=C/c2ccc(OCCN3CCCCC3)c(OC)c2)cc1 showed an IC50 of 43.3 µM.
In the case of COc1ccc(-n2cc(CNCCc3cscn3)c(-c3ccccc3Cl)n2)cc1, the IC50 is reported as 27.8 µM.
O=C(NCC(c1cccs1)N1CCOCC1)c1cc([N+](=O)[O-])cc([N+](=O)[O-])c1 (stereo unspecified) gave an IC50 of 0.81 µM.
Molecule O=C(NCc1ccccn1)C(=O)Nc1nc(C23CC4CC(CC(C4)C2)C3)cs1 has an IC50 of 6.5 µM.
Molecule Cc1ccc(C(=O)OCc2nnc(-c3ccccc3)o2)s1 has an IC50 of 20.4 µM.
Work on CC1CCN(C(=O)C2CCN(c3nnc(-n4cccc4)s3)CC2)CC1 yielded an IC50 of 3.51 µM.
Molecule Brc1ccc(-c2nc3ncccn3c2Nc2ccc3c(c2)OCCO3)o1 has an IC50 of 90.7 µM.
In the case of Cn1c(-c2c(N)n(CCc3ccccc3)c3nc4ccccc4nc23)nc2ccccc21, the IC50 is reported as 17.9 µM.
CC1=CC(=O)C(C(C)C)=C/C1=N/OS(=O)(=O)c1ccccc1 was tested, and the IC50 was 4.28 µM.
Molecule O=c1oc2ccccc2c2c1nc(C(F)(F)F)n2-c1ccccc1 has an IC50 of 13.9 µM.
For O=C(NCCN1CCN(c2cccc(Cl)c2)CC1)c1ccc(CSc2nc3ccncc3[nH]2)cc1, the IC50 was 21.8 µM.
Work on CCOC(=O)Cn1c(-c2ccccc2)ccc(C#N)c1=O yielded an IC50 of 10.4 µM.
C/C(=N\Nc1ccc([N+](=O)[O-])cc1)c1cccc(N)c1 gave an IC50 of 61.2 µM.
In the case of COC(=O)CCn1c(C)cc(C(=O)COc2ccccc2C(N)=O)c1C, the IC50 is reported as 10.9 µM.
In the case of CS/C(Nc1cc(Cl)ccc1Cl)=C(/C#N)C(=O)c1ccco1, the IC50 is reported as 20.4 µM.
O=[N+]([O-])c1ccc(N2CCCCC2)s1 gave an IC50 of 13.7 µM.
CCc1cc(C(=O)NNC(=O)CCl)sc1C gave an IC50 of 5.03 µM.
In the case of Cn1c(=O)c(C(=O)NNC(=O)c2cccc(Cl)c2)c(O)c2ccccc21, the IC50 is reported as 2.78 µM.
Cc1cc(C)nc(-n2nc(C)cc2NC(=O)CN2CCC(C)CC2)n1 was tested, and the IC50 was 16.4 µM.
CC(C)(O)C#Cc1ccc(C(=O)Nc2ccc3c(c2)OCO3)s1 was tested, and the IC50 was 42.9 µM.
Molecule Cc1cc(NC2CCCCC2)nc(-c2ccccc2O)n1 has an IC50 of 35.9 µM.
With COC(=O)CSc1nnc(CNc2ccc(Cl)cc2)n1-c1ccccc1 the IC50 was 22.4 µM.
Cc1ccc2c(c1)c1ncnc(N3CCc4ccccc4C3)c1n2C was tested, and the IC50 was 73.8 µM.
Work on Cc1cc(N/N=C/c2ccccc2[N+](=O)[O-])nc(-n2nc(C)cc2C)n1 yielded an IC50 of 3.42 µM.
Molecule CN(CCCC1CCCC1)C(=O)CCc1nnc(-c2ccccc2)o1 has an IC50 of 16.9 µM.
O=C1NCC(O)=C1C=Nc1ccccc1O showed an IC50 of 5.54 µM.
Work on CCCCCCCCCCOC(=O)Cn1c(COc2ccc(Cl)cc2)[n+](C)c2ccccc21 yielded an IC50 of 15.8 µM.
For O=C(OCc1nc2ccccc2s1)c1ccc(Br)o1, the IC50 was 33.5 µM.
Molecule O=C(CSc1cccc[n+]1[O-])c1cccs1 has an IC50 of 34.9 µM.
In the case of COC(=O)CSc1ncnc2c1sc1nc3c(cc12)COC(C)(C)C3, the IC50 is reported as 5.81 µM.
CCn1c2ccccc2c2cc(CN3CCN(Cc4cc(OC)ccc4O)CC3)ccc21 showed an IC50 of 17.2 µM.
Cc1ccn2nc(S(=O)(=O)Nc3c(F)cccc3F)nc2n1 was tested, and the IC50 was 9.62 µM.
With CCn1c(C)nc2cc(C(=O)OC(C(F)(F)C(F)F)C(F)(F)C(F)F)ccc21 the IC50 was 21.2 µM.
For COc1cc2nc(N3CCN(c4cc(C)ccc4C)CC3)nc(N)c2cc1OC, the IC50 was 15.3 µM.
For CCN1CCN(Cc2ccc(NC(=O)c3cc(NC(=O)c4cncc(-c5cccs5)c4)cc(OC)c3)cc2C(F)(F)F)CC1, the IC50 was 10.3 µM.
Molecule NNC(=S)Nc1ccccc1Cl has an IC50 of 83.8 µM.
In the case of Oc1ccccc1N=Cc1ccc[nH]1, the IC50 is reported as 4.6 µM.
Work on CCCCNC(=S)N/N=C/c1cccc(OCC)c1O yielded an IC50 of 10.8 µM.
CNC(C)C#Cc1ccc2oc3cc(C)c(C)cc3c(=O)c2c1 (stereo unspecified) gave an IC50 of 16.4 µM.
For O=c1[nH]c(CSc2cccc[n+]2[O-])nc2ccccc12, the IC50 was 89.1 µM.
With CCCn1nnnc1NC(=O)c1ccc(C)cc1Cl the IC50 was 16.1 µM.
